Measurements published in US8278452B2, “Heterocyclic compounds and compositions as c-kit and PDGFR kinase inhibitors” (IRM LLC, priority 2008, dated 2012).

tested on: Mo7e cells which endogenously express c-kit; assay: Mo7e assay: inhibition of SCF dependent proliferation (MTT); assay type: cell-based; conditions: Table 1; SCF stimulated Mo7e cells, 48 hours, MTT
Method in brief: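 Mo7e cells stimulated with human recombinant SCF and exposed to two-fold serial compound dilutions from a top concentration of 10 μM. After 48 h at 37 °C, viability measured by MTT colorimetric assay; IC50 derived.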

Row | SMILES | IC50 [nM]
1 | Cc1cc2c(cn1)cc(-c1cc(Nc3noc(C4CC(O)C4)n3)ccc1C)c(=O)n2C (centres unmarked) [Compound A83, 3-(5-{[5-(3-hydroxycyclobutyl)-1,2,4-oxadiazol-3-yl]amino}-2-methylphenyl)-1,7-dimethyl-1,2-dihydro-1,6-naphthyridin-2-one] | 251
2 | Cc1cc2c(cn1)cc(-c1cc(Nc3noc(-c4ncccc4C)n3)ccc1C)c(=O)n2C [Compound A79, 1,7-dimethyl-3-(2-methyl-5-{[5-(3-methylpyridin-2-yl)-1,2,4-oxadiazol-3-yl]amino}phenyl)-1,2-dihydro-1,6-naphthyridin-2-one] | 94
3 | Cc1cc2c(cn1)cc(-c1cc(Nc3noc(C4(C(F)(F)F)CC4)n3)ccc1C)c(=O)n2C [Compound A58, 1,7-dimethyl-3-(2-methyl-5-(5-(1-(trifluoromethyl)cyclopropyl)-1,2,4-oxadiazol-3-ylamino)phenyl)-1,6-naphthyridin-2(1H)-one] | 399
4 | Cc1cc2c(cn1)cc(-c1cc(Nc3noc(-c4ccc(F)c(F)c4)n3)ccc1C)c(=O)n2C [Compound A62, 3-(5-{[5-(3,4-difluorophenyl)-1,2,4-oxadiazol-3-yl]amino}-2-methylphenyl)-1,7-dimethyl-1,2-dihydro-1,6-naphthyridin-2-one] | 126
5 | CCc1cc2c(cn1)cc(-c1cc(Nc3noc(-c4ccccn4)n3)ccc1C)c(=O)n2C [Compound A105, 7-ethyl-1-methyl-3-(2-methyl-5-(5-(pyridin-2-yl)-1,2,4-oxadiazol-3-ylamino)phenyl)-1,6-naphthyridin-2(1H)-one] | 285
6 | Cc1cc2c(cn1)cc(-c1cc(Nc3noc(-c4ccc(Cl)cc4)n3)ccc1C)c(=O)n2C [Compound A12, 3-(5-{[5-(4-chlorophenyl)-1,2,4-oxadiazol-3-yl]amino}-2-methylphenyl)-1,7-dimethyl-1,2-dihydro-1,6-naphthyridin-2-one] | 13
7 | Cc1cc2c(cn1)cc(-c1cc(Nc3noc(-c4nc(C)oc4C)n3)ccc1C)c(=O)n2C [Compound A45, 3-(5-{[5-(2,5-dimethyl-1,3-oxazol-4-yl)-1,2,4-oxadiazol-3-yl]amino}-2-methylphenyl)-1,7-dimethyl-1,2-dihydro-1,6-naphthyridin-2-one] | 263
8 | Cc1cc2c(cn1)cc(-c1cc(Nc3noc(C(C)CO)n3)ccc1C)c(=O)n2C (centres unmarked) [Compound A67, 3-(5-(5-(1-hydroxypropan-2-yl)-1,2,4-oxadiazol-3-ylamino)-2-methylphenyl)-1,7-dimethyl-1,6-naphthyridin-2(1H)-one] | 299
9 | Cc1ccc(-c2nnc(Nc3ccc(C)c(-c4cc5cnc(C)cc5n(C)c4=O)c3)[nH]2)cc1 [Compound C4, 1,7-dimethyl-3-(2-methyl-5-{[5-(4-methylphenyl)-4H-1,2,4-triazol-3-yl]amino}phenyl)-1,2-dihydro-1,6-naphthyridin-2-one] | 288
10 | Cc1cc2c(cn1)cc(-c1cc(Nc3nnc(-c4cccc(Cl)c4)[nH]3)ccc1C)c(=O)n2C [Compound C7, 3-(5-{[5-(3-chlorophenyl)-4H-1,2,4-triazol-3-yl]amino}-2-methylphenyl)-1,7-dimethyl-1,2-dihydro-1,6-naphthyridin-2-one] | 378
11 | CCc1nc(Nc2ccc(C)c(-c3cc4cnc(C)cc4n(C)c3=O)c2)no1 [Compound A5, 3-(5-(5-ethyl-1,2,4-oxadiazol-3-ylamino)-2-methylphenyl)-1,7-dimethyl-1,6-naphthyridin-2(1H)-one] | 49
12 | Cc1cc2c(cn1)cc(-c1cc(Nc3noc([C@@H]4CCCO4)n3)ccc1C)c(=O)n2C [Compound A77, (S)-1,7-dimethyl-3-(2-methyl-5-(5-(tetrahydrofuran-2-yl)-1,2,4-oxadiazol-3-ylamino)phenyl)-1,6-naphthyridin-2(1H)-one] | 27
13 | Cc1cc2c(cn1)cc(-c1cc(Nc3nnc(-c4ccc(Cl)cc4)o3)ccc1C)c(=O)n2C [Compound B3, 3-(5-{[5-(4-chlorophenyl)-1,3,4-oxadiazol-2-yl]amino}-2-methylphenyl)-1,7-dimethyl-1,2-dihydro-1,6-naphthyridin-2-one] | 88
14 | COc1ccc(-c2nnc(Nc3ccc(C)c(-c4cc5cnc(C)cc5n(C)c4=O)c3)o2)cc1 [Compound B2, 3-(5-{[5-(4-methoxyphenyl)-1,3,4-oxadiazol-2-yl]amino}-2-methylphenyl)-1,7-dimethyl-1,2-dihydro-1,6-naphthyridin-2-one] | 85
15 | Cc1cc2c(cn1)cc(-c1cc(Nc3nnc(-c4ccc(Cl)cc4)[nH]3)ccc1C)c(=O)n2C [Compound C2, 3-(5-{[5-(4-chlorophenyl)-4H-1,2,4-triazol-3-yl]amino}-2-methylphenyl)-1,7-dimethyl-1,2-dihydro-1,6-naphthyridin-2-one] | 256
16 | Cc1cc2c(cn1)cc(-c1cc(Nc3noc(-c4cc(C)oc4C)n3)ccc1C)c(=O)n2C [Compound A2, 3-(5-{[5-(2,5-dimethylfuran-3-yl)-1,2,4-oxadiazol-3-yl]amino}-2-methylphenyl)-1,7-dimethyl-1,2-dihydro-1,6-naphthyridin-2-one] | 126

Row | SMILES | IC50 [nM]
17 | Cc1cc2c(cn1)cc(-c1cc(Nc3nsc(-c4ccccc4)n3)ccc1C)c(=O)n2C [Compound G1, 1,7-dimethyl-3-(2-methyl-5-(5-phenyl-1,2,4-thiadiazol-3-ylamino)phenyl)-1,6-naphthyridin-2(1H)-one] | 733
18 | Cc1cc2c(cn1)cc(-c1cc(Nc3noc(-c4cccn4C)n3)ccc1C)c(=O)n2C [Compound A21, 1,7-dimethyl-3-(2-methyl-5-{[5-(1-methyl-1H-pyrrol-2-yl)-1,2,4-oxadiazol-3-yl]amino}phenyl)-1,2-dihydro-1,6-naphthyridin-2-one] | 129
19 | Cc1cc2c(cn1)cc(-c1cc(Nc3noc(-c4ccc(CN)cc4)n3)ccc1C)c(=O)n2C [Compound A90, 3-[5-({5-[4-(aminomethyl)phenyl]-1,2,4-oxadiazol-3-yl}amino)-2-methylphenyl]-1,7-dimethyl-1,2-dihydro-1,6-naphthyridin-2-one] | 434
20 | Cc1cccc(-c2nc(Nc3ccc(C)c(-c4cc5cnc(C)cc5n(C)c4=O)c3)no2)c1 [Compound A17, 1,7-dimethyl-3-(2-methyl-5-{[5-(3-methylphenyl)-1,2,4-oxadiazol-3-yl]amino}phenyl)-1,2-dihydro-1,6-naphthyridin-2-one] | 241
21 | Cc1ccc(Nc2noc(-c3ccccc3)n2)cc1-c1cc2c[n+]([O-])c(C)cc2n(C)c1=O [Compound A86, 1,7-dimethyl-3-{2-methyl-5-[(5-phenyl-1,2,4-oxadiazol-3-yl)amino]phenyl}-6-oxido-2-oxo-1,2-dihydro-1,6-naphthyridin-6-ium] | 216
22 | Cc1cc2c(cn1)cc(-c1cc(Nc3noc(C4(C)COC4)n3)ccc1C)c(=O)n2C [Compound A65, 1,7-dimethyl-3-(2-methyl-5-{[5-(3-methyloxetan-3-yl)-1,2,4-oxadiazol-3-yl]amino}phenyl)-1,2-dihydro-1,6-naphthyridin-2-one] | 413
23 | Cc1cc2c(cn1)cc(-c1cc(Nc3noc([C@H]4C[C@@](C)(O)C4)n3)ccc1C)c(=O)n2C [Compound A101, 3-(5-{[5-(3-hydroxy-3-methylcyclobutyl)-1,2,4-oxadiazol-3-yl]amino}-2-methylphenyl)-1,7-dimethyl-1,2-dihydro-1,6-naphthyridin-2-one] | 205
24 | Cc1cc2c(cn1)cc(-c1cc(Nc3noc(-c4ccc(C#N)cc4F)n3)ccc1C)c(=O)n2C [Compound A63, 4-(3-{[3-(1,7-dimethyl-2-oxo-1,2-dihydro-1,6-naphthyridin-3-yl)-4-methylphenyl]amino}-1,2,4-oxadiazol-5-yl)-3-fluorobenzonitrile] | 123
25 | Cc1cc2c(cn1)cc(-c1cc(Nc3noc(C(O)C(C)C)n3)ccc1C)c(=O)n2C (stereo in doubt) [Compound A93, 3-[5-({5-[(1S)-1-hydroxy-2-methylpropyl]-1,2,4-oxadiazol-3-yl}amino)-2-methylphenyl]-1,7-dimethyl-1,2-dihydro-1,6-naphthyridin-2-one] | 283
26 | Cc1cc2c(cn1)cc(-c1cc(Nc3noc(CC(C)O)n3)ccc1C)c(=O)n2C (centres unmarked) [Compound A55, 3-(5-{[5-(2-hydroxypropyl)-1,2,4-oxadiazol-3-yl]amino}-2-methylphenyl)-1,7-dimethyl-1,2-dihydro-1,6-naphthyridin-2-one] | 294
27 | COc1cc(C)ccc1-c1nc(Nc2ccc(C)c(-c3cc4cnc(C)cc4n(C)c3=O)c2)no1 [Compound A80, 3-(5-{[5-(2-methoxy-4-methylphenyl)-1,2,4-oxadiazol-3-yl]amino}-2-methylphenyl)-1,7-dimethyl-1,2-dihydro-1,6-naphthyridin-2-one] | 338
28 | Cc1cc2c(cn1)cc(-c1cc(Nc3noc(C(O)C(C)C)n3)ccc1C)c(=O)n2C (stereo in doubt) [Compound A92, (R)-3-(5-(5-(1-hydroxy-2-methylpropyl)-1,2,4-oxadiazol-3-ylamino)-2-methylphenyl)-1,7-dimethyl-1,6-naphthyridin-2(1H)-one] | 104
29 | Cc1cc2c(cn1)cc(-c1cc(Nc3noc(-c4cc5cc(Cl)ccc5[nH]4)n3)ccc1C)c(=O)n2C [Compound A46, 3-(5-{[5-(5-chloro-1H-indol-2-yl)-1,2,4-oxadiazol-3-yl]amino}-2-methylphenyl)-1,7-dimethyl-1,2-dihydro-1,6-naphthyridin-2-one] | 338
30 | Cc1cc2c(cn1)cc(-c1cc(Nc3nnc(C(C)C)o3)ccc1C)c(=O)n2C [Compound B7, 1,7-dimethyl-3-(2-methyl-5-{[5-(propan-2-yl)-1,3,4-oxadiazol-2-yl]amino}phenyl)-1,2-dihydro-1,6-naphthyridin-2-one] | 162
31 | Cc1cc2c(cn1)cc(-c1cc(Nc3nnc(C4CCC4)[nH]3)ccc1C)c(=O)n2C [Compound C8, 3-{5-[(5-cyclobutyl-4H-1,2,4-triazol-3-yl)amino]-2-methylphenyl}-1,7-dimethyl-1,2-dihydro-1,6-naphthyridin-2-one] | 435
32 | Cc1cc2c(cn1)cc(-c1cc(Nc3noc(C(C)(F)F)n3)ccc1C)c(=O)n2C [Compound A54, 3-(5-(5-(1,1-difluoroethyl)-1,2,4-oxadiazol-3-ylamino)-2-methylphenyl)-1,7-dimethyl-1,6-naphthyridin-2(1H)-one] | 148
